Here are results for one substance from patent EP0386951A2 (ELI LILLY AND COMPANY, priority 1989, dated 1990).

Data set [1] is described as follows: Stability of daptomycin reconstituted in buffered diluents and diluted in 5% dextrose (appearance of degradation products). Format: physicochemical. The note with it: dissolved in 5% dextrose solution. The source says: The effectiveness of the buffered diluents in suppressing the appearance of degradation products is shown below in Table 2: Table 2: […]
Data set [2] is described as follows: Stability of daptomycin reconstituted to 1 mg/ml in normal saline or 5% dextrose, stored at room and refrigerated temperature. Format: physicochemical. The note with it: solutions of daptomycin and dextrose, 24 h. Here is the method: Next, the solutions were stored at room temperature (approximately 25°C) and refrigerated temperatures and assayed at the 6 h and 24 h timepoints.

Consider daptomycin, for which the degradation in data set [1] (24 h at 25°C) and in data set [1] (7 days at 5°C) was 15-20% in each case. In addition, the potency loss result in data set [2] (refrigerated temperature) is recorded as “about 5%”; in data set [2] (room temperature), 17%.
